Assay results as given in ChEMBL document CHEMBL1201862, “PubChem BioAssay data set” (2004).
Active and inactive are the calls of the source.

How the values were obtained:
[1] = cells; type: functional, cell-based
[2] = target: Nuclear receptor subfamily 0 group B member 1 (Homo sapiens, UniProt P51843); type: functional, cell-based;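 further: HEK293T cells transfected with SF-1 and DAX-1 plus StAR promoter luciferase reporter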
[3] = Fluorescence-based cell-based high throughput dose response assay for inhibitors of the interaction of nucleotide-binding oligomerization domain containing 2 (NOD2) and the receptor-interacting serine-threonine kinase 2 (RIPK2).; type: functional; settings: Homo sapiens
[4] = target: SWI/SNF-related matrix-associated actin-dependent regulator of chromatin subfamily A member 2 (Homo sapiens, UniProt P51531); test: Luminescence-based cell-based high throughput dose response assay to identify activators of the function of SWI/SNF related, matrix associated, actin dependent regulator of chromatin, subfamily a, member 2 (SMARCA2, BRM).; type: functional
[5] = Counterscreen for activators of the function of SWI/SNF related, matrix associated, actin dependent regulator of chromatin, subfamily a, member 2 (SMARCA2, BRM): Luminescence-based cell-based high throughput dose response assay to identify non-selective compounds using the VP16 reporter assay.; type: functional
[6] = target: 26S proteasome non-ATPase regulatory subunit 14 (Homo sapiens, UniProt O00487); test: inhibition of proteasome subunit RPN11 – biochemical, fluorescence polarization, uHTS hits, confirmation (AID 602368); type: functional
[7] = target: 72 kDa type IV collagenase (Homo sapiens, UniProt P08253); test: Dose Response validation of uHTS RPN11 inhibitor hits using a MMP-2 Fluorescence assay.; type: functional
[8] = target: Prothrombin (Bos taurus, UniProt P00735); test: thrombin inhibition, dose response, biochemical, fluorescence polarization, uHTS hits (AID 602369); type: functional
[9] = system: Vero; test: Vero cell toxicity, dose response, cytotoxicity control, plate reader, cherry-pick samples (AID 687020); type: functional, cell-based; settings: Chlorocebus sabaeus
[10] = system: A549; test: A549 cell toxicity, dose response, cytotoxicity control, plate reader, cherry-pick samples (AID 687028); type: functional, cell-based; settings: Homo sapiens
[11] = target: T1, Methionyl-tRNA synthetase, putative (Trypanosoma brucei brucei, UniProt Q38C91); type: functional, Trypanosoma brucei brucei strain 927/4 GUTat10.1
T1 sequence (Q38C91 whole entry): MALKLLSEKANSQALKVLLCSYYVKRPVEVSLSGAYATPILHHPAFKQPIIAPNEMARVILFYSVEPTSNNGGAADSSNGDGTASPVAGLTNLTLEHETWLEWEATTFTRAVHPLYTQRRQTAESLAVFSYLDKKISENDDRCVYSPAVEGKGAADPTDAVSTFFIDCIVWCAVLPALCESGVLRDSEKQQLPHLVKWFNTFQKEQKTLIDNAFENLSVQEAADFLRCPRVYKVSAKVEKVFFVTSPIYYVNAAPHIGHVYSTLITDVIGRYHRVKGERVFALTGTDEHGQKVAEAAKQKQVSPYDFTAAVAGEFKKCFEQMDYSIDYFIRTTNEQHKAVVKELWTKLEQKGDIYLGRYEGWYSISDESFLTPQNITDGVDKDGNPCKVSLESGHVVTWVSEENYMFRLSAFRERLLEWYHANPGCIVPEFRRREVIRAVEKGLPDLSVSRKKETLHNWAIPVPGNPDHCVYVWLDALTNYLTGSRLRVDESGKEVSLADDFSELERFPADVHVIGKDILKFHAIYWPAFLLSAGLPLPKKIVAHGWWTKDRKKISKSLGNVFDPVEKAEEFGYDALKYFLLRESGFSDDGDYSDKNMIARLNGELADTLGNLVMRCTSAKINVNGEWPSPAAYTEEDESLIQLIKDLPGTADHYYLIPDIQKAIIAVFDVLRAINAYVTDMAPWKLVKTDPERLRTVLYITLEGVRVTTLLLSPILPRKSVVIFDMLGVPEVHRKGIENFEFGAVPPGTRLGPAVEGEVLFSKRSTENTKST

[12] = Counterscreen for inhibitors of Trypanosoma brucei methionyl tRNA synthetase (MetRS): Luminescence-based cell-based high throughput dose response assay to identify compounds that are cytotoxic to Jurkat human T lymphocyte cells.; type: functional
[13] = target: T1, Methionyl-tRNA synthetase, putative; type: functional, Trypanosoma brucei brucei strain 927/4 GUTat10.1; remark: listed apart in the source
[14] = target: Nuclear receptor subfamily 5 group A member 2 (Homo sapiens, UniProt O00482); type: functional, cell-based;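 further: HEK293T cells transfected with LRH-1 and a StAR promoter luciferase reporter; potency for inhibitors that lower LRH-1 driven reporter light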
[15] = target: Steroidogenic factor 1 (Homo sapiens, UniProt Q13285); test: Counterscreen for inverse agonists of the liver receptor homolog-1 (LRH-1; NR5A2): Luminescence-based cell-based high throughput dose response assay to identify inverse agonists of the Steroidogenic Factor 1 Nuclear Receptor (SF1; NR5A1).; type: functional
[16] = StAR promoter reporter inhibition counter-screen, dose response, counter-screen for LRH-1 inverse agonist project, cell-based, luminescence, luciferase reporter (AID 651969); type: functional
[17] = target: T2, Hexokinase (Trypanosoma brucei, UniProt Q38C41); test: Confirmation assay for inhibitors of Trypanosoma brucei hexokinase 1-Analogue-first series. [Related pubchem assays (depositor defined):AID1430, AID1632, AID2516, AID2560, AID2579, AID2600, AID449725, AID492951]; type: functional
T2 sequence (Q38C41 whole entry): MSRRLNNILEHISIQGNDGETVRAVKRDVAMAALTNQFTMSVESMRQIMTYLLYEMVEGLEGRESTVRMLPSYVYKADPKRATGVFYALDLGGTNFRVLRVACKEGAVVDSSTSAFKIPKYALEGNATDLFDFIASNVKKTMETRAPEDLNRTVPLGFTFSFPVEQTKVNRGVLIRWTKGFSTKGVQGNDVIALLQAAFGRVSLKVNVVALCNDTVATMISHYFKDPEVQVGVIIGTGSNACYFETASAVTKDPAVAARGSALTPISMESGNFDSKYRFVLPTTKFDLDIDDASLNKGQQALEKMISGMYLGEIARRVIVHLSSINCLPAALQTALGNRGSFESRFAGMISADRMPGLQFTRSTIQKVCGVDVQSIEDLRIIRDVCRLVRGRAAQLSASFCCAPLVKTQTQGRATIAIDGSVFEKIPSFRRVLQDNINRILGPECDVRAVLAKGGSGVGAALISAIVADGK

[18] = target: Glucose-6-phosphate 1-dehydrogenase (Homo sapiens, UniProt P11413); test: human G6PD enzyme inhibitors, dose response, selectivity assay for P. falciparum G6PD inhibitor project, biochemical, fluorescence (AID 504792); type: functional
[19] = target: Beta Lactamase (Pseudomonas aeruginosa, UniProt Q932Y6); test: beta-lactamase reporter inhibitor potency, dose response, artefact control for NOD2-RIPK2 interaction inhibitor project, BLA reporter cells, FRET fluorescence (AID 651552); type: functional, cell-based
[20] = HeLa cell cytotoxicity, dose response, cytotoxicity control for MgcRacGAP inhibitor project (AID 624300); type: functional
[21] = target: T3, Rac GTPase-activating protein 1 (Homo sapiens, UniProt Q9H0H5); test: MgcRacGAP GTPase-activating activity inhibitors, confirmation, biochemical, ADP Hunter fluorescence, primary and confirmatory (AID 624330); type: functional
T3 sequence (Q9H0H5 whole entry): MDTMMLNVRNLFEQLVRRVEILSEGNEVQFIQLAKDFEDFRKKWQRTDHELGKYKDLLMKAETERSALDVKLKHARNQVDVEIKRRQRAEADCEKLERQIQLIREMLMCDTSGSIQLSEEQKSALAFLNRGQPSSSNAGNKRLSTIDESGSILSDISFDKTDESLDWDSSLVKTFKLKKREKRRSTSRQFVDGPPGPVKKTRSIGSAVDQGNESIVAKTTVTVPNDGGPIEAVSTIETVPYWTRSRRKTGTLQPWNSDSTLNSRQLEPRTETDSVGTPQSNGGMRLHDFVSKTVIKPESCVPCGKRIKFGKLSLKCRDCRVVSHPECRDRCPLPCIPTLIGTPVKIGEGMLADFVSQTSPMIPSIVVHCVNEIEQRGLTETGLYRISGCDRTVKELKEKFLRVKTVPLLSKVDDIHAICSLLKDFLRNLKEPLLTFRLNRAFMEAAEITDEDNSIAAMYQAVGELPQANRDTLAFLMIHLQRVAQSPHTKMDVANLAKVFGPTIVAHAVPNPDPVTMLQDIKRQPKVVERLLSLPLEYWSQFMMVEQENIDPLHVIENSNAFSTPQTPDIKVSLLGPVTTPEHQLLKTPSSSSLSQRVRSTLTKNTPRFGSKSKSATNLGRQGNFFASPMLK

[22] = target: Adenosylmethionine-8-amino-7-oxononanoate aminotransferase (Mycobacterium tuberculosis, UniProt P9WQ81); test: Mycobacterium tuberculosis BioA enzyme inhibitor Measured in Biochemical System Using Plate Reader - 2163-02_Inhibitor_Dose_CherryPick_Activity.; type: functional, Mycobacterium tuberculosis UT205
[23] = target: T4, Fatty acid synthase (Homo sapiens, UniProt P49327); test: FAS thioesterase domain inhibitors, dose response, biochemical, endpoint fluorescence intensity, uHTS hits (AID 624327); type: functional;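 further: fluorescence from hydrolysis of an O-methyl fluorescein acyl ester substrate by the enzyme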
[24] = target: T4, Fatty acid synthase; test: FAS thioesterase domain inhibitors, dose response, biochemical, kinetic fluorescence intensity (AID 624326); type: functional;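 further: rate of fluorescence rise from hydrolysis of a fluorogenic O-methyl fluorescein ester substrate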
[25] = target: T5, Probable nicotinate-nucleotide adenylyltransferase (Staphylococcus aureus (strain N315), UniProt P65502); type: functional, Staphylococcus aureus subsp. aureus N315;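 on IC50 Mean: confirmatory dose-response retesting of NadD inhibitor hits first found in an ultra-high-throughput screen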
[26] = target: T5, Probable nicotinate-nucleotide adenylyltransferase; type: functional, Staphylococcus aureus subsp. aureus N315; settings: read-out: IC50_Mean
[27] = target: Beta-lactamase (Salmonella choleraesuis (strain SC-B67), UniProt Q5J463); test: Epi-absorbance-based counterscreen for selective VIM-2 inhibitors: dose response biochemical high throughput screening assay to identify inhibitors of TEM-1 serine-beta-lactamase.
[28] = target: T6, Beta-lactamase (Pseudomonas aeruginosa, UniProt Q79MP6); test: IMP-1 metallo-beta-lactamase inhibitors, dose response, selectivity assay for VIM-2 inhibitor project, biochemical, epi-absorbance (AID 1920)
[29] = target: T6, Beta-lactamase; test: […] counterscreen for selective VIM-2 inhibitors: dose response biochemical high throughput screening assay to identify inhibitors of IMP-1 metallo-beta-lactamase.

26S proteasome non-ATPase regulatory subunit 14, sequence (O00487 whole entry): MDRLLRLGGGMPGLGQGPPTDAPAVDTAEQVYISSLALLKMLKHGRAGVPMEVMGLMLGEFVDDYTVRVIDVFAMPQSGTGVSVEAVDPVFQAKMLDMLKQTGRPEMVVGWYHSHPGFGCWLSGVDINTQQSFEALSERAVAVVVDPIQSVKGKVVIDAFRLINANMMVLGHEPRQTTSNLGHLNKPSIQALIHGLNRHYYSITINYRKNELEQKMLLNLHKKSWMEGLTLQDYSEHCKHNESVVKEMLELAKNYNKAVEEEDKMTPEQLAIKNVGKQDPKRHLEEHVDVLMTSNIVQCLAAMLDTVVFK
T6 sequence (Q79MP6 whole entry): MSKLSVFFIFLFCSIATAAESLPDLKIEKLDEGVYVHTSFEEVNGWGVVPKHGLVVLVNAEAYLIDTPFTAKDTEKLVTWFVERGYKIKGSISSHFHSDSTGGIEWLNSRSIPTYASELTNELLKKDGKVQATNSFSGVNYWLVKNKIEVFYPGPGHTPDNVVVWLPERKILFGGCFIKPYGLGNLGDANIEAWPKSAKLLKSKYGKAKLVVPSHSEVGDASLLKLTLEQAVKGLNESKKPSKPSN
72 kDa type IV collagenase, sequence (P08253 whole entry): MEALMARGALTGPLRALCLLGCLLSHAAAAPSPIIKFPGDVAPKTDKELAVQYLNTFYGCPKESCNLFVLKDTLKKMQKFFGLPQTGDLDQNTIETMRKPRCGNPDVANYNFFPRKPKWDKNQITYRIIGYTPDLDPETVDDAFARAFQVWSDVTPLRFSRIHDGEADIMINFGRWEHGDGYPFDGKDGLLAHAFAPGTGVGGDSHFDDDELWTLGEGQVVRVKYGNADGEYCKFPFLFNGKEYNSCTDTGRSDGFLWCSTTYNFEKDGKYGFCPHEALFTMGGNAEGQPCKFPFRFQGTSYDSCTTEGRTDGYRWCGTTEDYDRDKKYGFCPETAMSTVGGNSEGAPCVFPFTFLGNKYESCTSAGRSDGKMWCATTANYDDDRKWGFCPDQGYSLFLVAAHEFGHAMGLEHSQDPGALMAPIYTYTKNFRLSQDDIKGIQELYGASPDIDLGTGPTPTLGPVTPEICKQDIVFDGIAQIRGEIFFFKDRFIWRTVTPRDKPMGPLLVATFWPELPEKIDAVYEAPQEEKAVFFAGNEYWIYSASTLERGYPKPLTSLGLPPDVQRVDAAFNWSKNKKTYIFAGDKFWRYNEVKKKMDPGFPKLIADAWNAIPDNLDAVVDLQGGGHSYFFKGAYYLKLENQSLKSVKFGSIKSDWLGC
Nuclear receptor subfamily 5 group A member 2, sequence (O00482 whole entry): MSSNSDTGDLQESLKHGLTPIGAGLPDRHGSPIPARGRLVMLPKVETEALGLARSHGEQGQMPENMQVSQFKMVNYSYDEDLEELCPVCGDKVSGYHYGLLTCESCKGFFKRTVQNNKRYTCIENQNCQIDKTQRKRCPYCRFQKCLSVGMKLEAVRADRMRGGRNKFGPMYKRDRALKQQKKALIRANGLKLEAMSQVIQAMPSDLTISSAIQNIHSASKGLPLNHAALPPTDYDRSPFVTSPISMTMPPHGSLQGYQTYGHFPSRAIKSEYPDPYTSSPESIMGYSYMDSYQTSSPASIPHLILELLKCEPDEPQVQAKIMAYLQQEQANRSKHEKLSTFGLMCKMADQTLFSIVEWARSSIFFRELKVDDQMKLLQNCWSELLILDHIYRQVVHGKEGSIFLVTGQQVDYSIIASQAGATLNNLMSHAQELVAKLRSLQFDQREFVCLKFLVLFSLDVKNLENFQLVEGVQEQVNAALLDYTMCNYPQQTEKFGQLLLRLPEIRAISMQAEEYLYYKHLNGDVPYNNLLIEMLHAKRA
T5 sequence (P65502 whole entry): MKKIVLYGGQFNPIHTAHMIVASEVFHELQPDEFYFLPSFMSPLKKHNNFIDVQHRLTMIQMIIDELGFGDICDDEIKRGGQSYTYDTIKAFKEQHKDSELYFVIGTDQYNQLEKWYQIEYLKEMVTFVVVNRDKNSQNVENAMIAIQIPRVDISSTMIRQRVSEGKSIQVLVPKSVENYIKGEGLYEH
Beta-lactamase (Salmonella choleraesuis (strain SC-B67), UniProt Q5J463), sequence (Q5J463 whole entry): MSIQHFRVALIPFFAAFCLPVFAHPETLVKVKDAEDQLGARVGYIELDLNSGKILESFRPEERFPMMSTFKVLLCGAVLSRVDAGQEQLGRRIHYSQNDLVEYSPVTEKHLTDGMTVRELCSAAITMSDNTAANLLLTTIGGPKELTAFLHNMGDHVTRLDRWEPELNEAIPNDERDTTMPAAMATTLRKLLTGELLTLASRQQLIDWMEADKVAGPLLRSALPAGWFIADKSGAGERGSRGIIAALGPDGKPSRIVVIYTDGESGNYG
Beta Lactamase, sequence (Q932Y6 whole entry): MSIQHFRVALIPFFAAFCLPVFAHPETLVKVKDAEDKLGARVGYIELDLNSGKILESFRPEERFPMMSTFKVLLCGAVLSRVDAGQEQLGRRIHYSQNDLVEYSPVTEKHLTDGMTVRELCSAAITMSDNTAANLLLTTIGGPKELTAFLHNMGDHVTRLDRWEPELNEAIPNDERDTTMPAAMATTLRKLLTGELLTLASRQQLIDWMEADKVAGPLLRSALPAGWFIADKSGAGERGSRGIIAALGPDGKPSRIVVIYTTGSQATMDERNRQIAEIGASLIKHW
Adenosylmethionine-8-amino-7-oxononanoate aminotransferase, sequence (P9WQ81 whole entry, the tested form may be a part): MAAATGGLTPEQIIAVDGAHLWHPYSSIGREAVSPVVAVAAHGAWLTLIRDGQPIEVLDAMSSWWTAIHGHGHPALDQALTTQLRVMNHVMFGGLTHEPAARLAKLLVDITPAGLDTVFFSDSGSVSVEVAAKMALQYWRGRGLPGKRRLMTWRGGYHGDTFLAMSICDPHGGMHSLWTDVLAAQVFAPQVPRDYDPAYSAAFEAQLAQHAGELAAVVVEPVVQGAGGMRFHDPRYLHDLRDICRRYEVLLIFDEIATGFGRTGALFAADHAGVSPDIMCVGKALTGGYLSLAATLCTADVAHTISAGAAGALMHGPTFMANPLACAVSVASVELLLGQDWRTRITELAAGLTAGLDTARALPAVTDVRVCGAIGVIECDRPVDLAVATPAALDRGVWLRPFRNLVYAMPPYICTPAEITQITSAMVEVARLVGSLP
Steroidogenic factor 1, sequence (Q13285 whole entry): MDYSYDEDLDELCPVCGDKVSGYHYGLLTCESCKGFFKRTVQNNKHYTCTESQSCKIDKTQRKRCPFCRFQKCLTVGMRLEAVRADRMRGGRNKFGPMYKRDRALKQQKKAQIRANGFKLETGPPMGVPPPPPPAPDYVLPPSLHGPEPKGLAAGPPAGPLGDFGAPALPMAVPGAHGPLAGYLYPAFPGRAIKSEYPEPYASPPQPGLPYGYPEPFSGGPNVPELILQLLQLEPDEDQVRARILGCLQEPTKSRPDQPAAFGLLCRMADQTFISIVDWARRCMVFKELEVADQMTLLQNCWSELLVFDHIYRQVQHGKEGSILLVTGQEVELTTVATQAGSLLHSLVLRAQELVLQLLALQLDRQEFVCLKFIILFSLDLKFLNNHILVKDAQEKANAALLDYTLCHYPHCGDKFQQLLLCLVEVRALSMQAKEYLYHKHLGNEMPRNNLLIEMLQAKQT
SWI/SNF-related matrix-associated actin-dependent regulator of chromatin subfamily A member 2, sequence (P51531 whole entry): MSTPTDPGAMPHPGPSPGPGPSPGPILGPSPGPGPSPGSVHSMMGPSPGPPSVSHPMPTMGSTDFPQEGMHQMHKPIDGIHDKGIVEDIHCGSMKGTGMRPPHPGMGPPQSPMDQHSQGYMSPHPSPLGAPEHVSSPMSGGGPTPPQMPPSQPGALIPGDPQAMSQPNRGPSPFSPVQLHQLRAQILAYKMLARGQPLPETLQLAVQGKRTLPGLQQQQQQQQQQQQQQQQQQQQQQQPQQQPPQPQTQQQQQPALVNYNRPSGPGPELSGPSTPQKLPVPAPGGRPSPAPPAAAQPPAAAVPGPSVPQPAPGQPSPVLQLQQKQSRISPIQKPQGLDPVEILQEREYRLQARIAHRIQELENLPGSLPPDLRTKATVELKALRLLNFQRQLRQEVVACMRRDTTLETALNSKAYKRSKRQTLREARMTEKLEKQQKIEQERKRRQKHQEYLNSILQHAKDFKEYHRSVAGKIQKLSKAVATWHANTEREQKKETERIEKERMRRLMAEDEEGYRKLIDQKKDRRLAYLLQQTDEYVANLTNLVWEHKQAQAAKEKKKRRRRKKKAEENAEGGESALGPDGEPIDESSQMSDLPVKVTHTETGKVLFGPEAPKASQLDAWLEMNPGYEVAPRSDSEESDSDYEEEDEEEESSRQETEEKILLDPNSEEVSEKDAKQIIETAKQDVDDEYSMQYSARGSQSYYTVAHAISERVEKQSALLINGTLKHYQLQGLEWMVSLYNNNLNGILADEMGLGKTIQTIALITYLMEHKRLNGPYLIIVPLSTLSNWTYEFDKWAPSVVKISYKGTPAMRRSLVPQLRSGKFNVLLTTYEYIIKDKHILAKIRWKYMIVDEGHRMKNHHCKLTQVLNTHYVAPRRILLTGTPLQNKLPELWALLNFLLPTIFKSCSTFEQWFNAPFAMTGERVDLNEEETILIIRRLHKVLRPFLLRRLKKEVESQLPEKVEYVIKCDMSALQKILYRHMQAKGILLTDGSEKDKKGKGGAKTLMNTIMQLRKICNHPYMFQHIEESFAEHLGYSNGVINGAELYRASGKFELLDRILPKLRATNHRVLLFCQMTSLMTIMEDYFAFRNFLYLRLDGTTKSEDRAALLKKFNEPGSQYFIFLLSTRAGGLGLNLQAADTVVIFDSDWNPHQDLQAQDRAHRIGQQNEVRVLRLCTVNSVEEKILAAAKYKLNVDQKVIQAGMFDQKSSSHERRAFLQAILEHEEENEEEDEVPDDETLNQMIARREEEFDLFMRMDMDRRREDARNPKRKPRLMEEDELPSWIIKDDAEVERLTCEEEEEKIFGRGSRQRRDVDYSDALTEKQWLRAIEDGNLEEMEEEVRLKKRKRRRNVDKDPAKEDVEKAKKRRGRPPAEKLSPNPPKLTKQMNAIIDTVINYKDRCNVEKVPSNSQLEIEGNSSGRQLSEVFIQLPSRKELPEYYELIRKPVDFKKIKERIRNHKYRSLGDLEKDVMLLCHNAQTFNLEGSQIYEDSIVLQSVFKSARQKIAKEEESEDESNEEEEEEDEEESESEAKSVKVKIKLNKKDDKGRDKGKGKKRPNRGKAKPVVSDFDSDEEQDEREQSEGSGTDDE

SMILES: O=C(Nc1ccc(Cl)cn1)c1ccc2nccnc2c1
- IC50 [1]: > 67.6 µM (inactive)
- IC50 [2]: > 67.6 µM (inactive)

SMILES: CN(CC(=O)Nc1ccccc1Cl)C(=O)COC(=O)c1nc(Cl)c(Cl)c(Cl)c1Cl
- IC50 [3]: 8.62 µM (active)
- EC50 [4]: > 91.2 µM (inactive)
- EC50 [5]: > 91.2 µM (inactive)

SMILES: O=c1[nH]c(CSc2ncnc3sccc23)nc2cc(C(F)(F)F)ccc12
- IC50 [6]: 32 µM (active)
- IC50 [7]: > 100 µM (inactive)
- IC50 [8]: 60.8 µM (active)

SMILES: CCC(C)[C@H](NC(=O)[C@@H]1Cc2ccccc2CN1)C(=O)NCc1ccc(C)cc1 (stereo not given in full)
- AC50 [9]: 29.5 µM (active)
- AC50 [10]: 20.9 µM (active)

SMILES: CN(C)S(=O)(=O)c1cccc(NC(=O)Cc2ccc(Cl)cc2)c1
- IC50 [11]: 72.3 µM (inactive)
- IC50 [12]: 83.3 µM (inactive)
- IC50 [13]: 32.3 µM (inactive)

SMILES: Cc1cc2nc(CS)[nH]c2cc1C
- IC50 [6]: 51.1 µM (active)
- IC50 [7]: 9.51 µM (active)
- IC50 [8]: > 100 µM (inactive)

SMILES: COc1ccc(OCCNC(=O)C2(C)CCN2Cc2ccc(SC)cc2)cc1 (stereo not given)
- IC50 [14]: 5.57 µM (active)
- IC50 [15]: 3.51 µM (active)
- IC50 [16]: 35.9 µM (inactive)

SMILES: COc1ccc(-n2sc3ccccc3c2=O)cc1
- IC50 [17]: 5.35 µM (active)
- IC50 [18]: 9.6 µM (active)
- IC50 [3]: 5.79 µM (active)
- IC50 [19]: 27 µM (inactive)
- CC50 [20]: 79.7 µM (active)
- IC50 [21]: 34.5 µM (active)
- EC50 [4]: > 91.2 µM (inactive)
- EC50 [5]: > 91.2 µM (inactive)

SMILES: COc1cc(-c2nnc(S)n2Cc2ccccc2)cc(OC)c1OC
- AC50 [22]: 2.51 µM (active)

SMILES: COc1ccc(C(=O)Nc2cccnc2)cc1OC
- AC50 [22]: 8.29 µM (active)

SMILES: CCOC(=O)[C@]12Cc3ccc(C)cc3[C@H]1N(C1CCCCC1)C(=O)c1cc(OC)ccc12
- IC50 [3]: 2.32 µM (active)
- IC50 [19]: 19.1 µM (inactive)
- IC50 [23]: 5.7 µM (active)
- IC50 [24]: 5.14 µM (active)

SMILES: Cc1cccc(NC(=O)COC(=O)Cc2cccs2)c1C
- IC50 [14]: 12.8 µM (inactive)
- IC50 [15]: 7.35 µM (active)
- IC50 [16]: 35.9 µM (inactive)

SMILES: CCc1cccc2c1NC(=O)C21N2CCCC2C(C(=O)c2ccc3ccccc3c2)C12C(=O)Nc1ccccc12 (stereo not given)
- IC50 [25]: 16.2 µM (active)
- IC50 [26]: 35.7 µM (active)

SMILES: COc1cc2c(cc1OC)C(C)N(C(=O)c1nccnc1C(=O)O)CC2 (stereo not given)
- IC50 [27]: > 59.6 µM (inactive)
- IC50 [28]: > 59.6 µM (inactive)
- IC50 [29]: > 59.6 µM (inactive)

SMILES: CCOC(=O)N=S(N)(=O)c1ccccc1 (stereo not given)
- IC50 [27]: > 59.6 µM (inactive)
- IC50 [28]: > 59.6 µM (inactive)
- IC50 [29]: > 59.6 µM (inactive)

SMILES: CN1C(=O)/C(=C\C=C2/CCCN2C)N(C)C1=S
- IC50 [6]: 23.3 µM (active)
- IC50 [7]: > 100 µM (inactive)
- IC50 [8]: 42.7 µM (active)

SMILES: C/C(CC(=O)Nc1cccc(Br)c1)=N\NC(=O)c1ccc(O)cc1O
- IC50 [11]: 1.23 µM (active)
- IC50 [12]: 83.3 µM (inactive)
- IC50 [13]: 0.756 µM (active)
